In ChEMBL document CHEMBL4177573 (Bioorg Med Chem, 2017):
Calls of active or inactive are those of the source. The rule behind the calls is not given here.

How the values were obtained:
Mus musculus [1] = assay: Anorectic activity in C57BL/6J mouse assessed as inhibition of food intake at 0.03 mg/kg/day, sc for 3 days dosed as continuous administration by infusion using osmotic pump; type: functional; settings: 72 h
Mus musculus [2] = assay: Anorectic activity in C57BL/6J mouse assessed as inhibition of food intake at 0.3 mg/kg/day, sc dosed as […] and measured after 24 hrs; type: functional
[3] = target: T1, Neuropeptide Y receptor type 1 (Homo sapiens, UniProt P25929); assay: Agonist activity at human neuropeptide Y1 receptor by [35S]GTPgammaS binding assay; type: functional
T1 sequence (P25929 whole entry): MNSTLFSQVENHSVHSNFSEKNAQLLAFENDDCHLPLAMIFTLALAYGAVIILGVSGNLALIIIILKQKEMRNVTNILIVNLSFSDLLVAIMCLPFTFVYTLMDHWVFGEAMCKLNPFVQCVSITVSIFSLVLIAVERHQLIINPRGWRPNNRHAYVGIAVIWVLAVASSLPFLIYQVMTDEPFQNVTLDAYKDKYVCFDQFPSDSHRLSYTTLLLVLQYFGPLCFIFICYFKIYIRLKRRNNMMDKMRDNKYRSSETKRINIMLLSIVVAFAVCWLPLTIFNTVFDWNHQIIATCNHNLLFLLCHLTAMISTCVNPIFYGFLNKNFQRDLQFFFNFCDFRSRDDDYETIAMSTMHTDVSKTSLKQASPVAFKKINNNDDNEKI

Mus musculus [4] = assay: Anorectic activity in DIO C57BL/6J mouse assessed as reduction in cumulative food intake at 0.01 mg/kg, sc for 2 weeks dosed as continuous administration by infusion of osmotic pumps relative to untreated control; type: functional, organism-based
Mus musculus [5] = assay: Antiobesity activity in DIO C57BL/6J mouse assessed as reduction in body weight at 0.01 mg/kg, sc for 2 weeks dosed as continuous administration by infusion of osmotic pumps relative to untreated control; type: functional; set-up: scale not given: the % may be the effect or the level left

In the case of `CC[C@](C)(NC(=O)[C@H]1C[C@H](O)CN1C(=O)[C@H](CO)NC(=O)c1c[nH]cn1)C(=O)N[C@@H](Cc1ccncc1)C(=O)N[C@@H](CC1CCCCC1)C(=O)N[C@@H](CC(C)(C)C)C(=O)N[C@@H](CC(N)=O)C(=O)N[C@@H](CCCCN)C(=O)NC(C)(C)C(=O)N[C@H](C(=O)N[C@@H](CCCNC(=N)N)C(=O)N[C@@H](CCC(N)=O)C(=O)N[C@@H](CCCNC(=N)N)C(=O)N[C@@H](CC1CCCCC1)C(N)=O)[C@@H](C)O`, the inhibition in vivo at 0.03 mg/kg/day (Mus musculus [1]) is reported as 52%, the inhibition in vivo at 0.3 mg/kg/day (Mus musculus [2]) is reported as 22% and the EC50 [3] is reported as greater than 1 µM. The Activity (Mus musculus [4]) was “Active” and the Activity (Mus musculus [5]) was 8.3%.
